# Test results published in patent US6362207B1, “Methods of treating viral infections with benzimidazoles” (priority 1995, dated 2002).
# Where two headings read alike, the source gives them in different places.
# Assays:
# HT29 colon tumor cells = experiment: MTT cell viability test, colon tumor cells; type: cell-based, human; settings: MTT, 5 day incubation
# B-16 mouse melanoma = settings: for Increased Life Span: B16 melanoma
# Experimental: The data in Tables 1, 2 and 3 are reported in T/C which is interpreted using the following scale:
# long term survivors for P388 is >30 days, for B16 it is >60 days. The NCI Measure of Success is T/C=125.
# This study was performed in black mice injected i.p. with B-16 mouse melanoma which many researchers believe is the most predictive model for efficacy in humans. […] Death is the end point in this model.
# MX1 breast cells = experiment: MTT cell viability test, breast tumor cells; type: cell-based, human; settings: 5 day incubation
# [1] = type: in vivo
# Excerpt: Additional in vivo cancer studies are presented in a tabular form below. The data is presented in the following format—dose regimen in parenthesis, dosage in mg/kg: tumor growth suppression (tg supp.), toxic deaths/number of test subjects (deaths), % weight change (wt).
# [2] = tested on: VM4K (MCF7 transfected with abnormal p53); experiment: Selectivity in killing p53 abnormal cell lines, cell counts; type: cell-based; settings: day 7
# Experimental: (§1) Summary of lest results: Pairs of tumors of the same type were chosen, one expressing normal p53 and the other abnormal p53. Breast lines used were MCF7 for the normal p53, V4B, a MCF7 cells transformed with an empty vector, and VM4K, an MCF7 cells transfected with a vector encoding abnormal p53. In the colorectal cancer model HCT116 with a normal p53 was used and DLD-1 was used as the abnormal p53 cell line. The tumor cells were grown the presence and absence of carbendazim for 7 days. Cell growth rates were determined in each group by counting the cell numbers daily using a Coulter counter.
# [3] = tested on: V4B (MCF7 transformed with empty vector); experiment: as above; type: cell-based; settings: day 7
# Experimental: as §1
# MCF7 (normal p53) = experiment: as above; type: cell-based; settings: day 7
# Experimental: as §1
# DLD-1 (abnormal p53) = experiment: as above; type: cell-based; settings: day 7
# Experimental: as §1
# HCT116 (normal p53) = experiment: as above; type: cell-based; settings: day 7
# Experimental: as §1
# [4] = tested on: HT29 (colon) cancer cells; experiment: Apoptosis study (TdT assay) and cell growth; type: cell-based, human
# Experimental: (§2) Summary of test results: The extent of apoptosis is measured in human tumor cell lines after treatment for 1, 2, 3 and 4 days with carbendazim. At each of these time points, the cells are harvested and assayed using the terminal deoxynucleotidyl transferase (TdT) assays. Both microscopy and flow cytometry were used for the TdT assay.
# (§3) In MCF7, HT29, B16 and SK-MES cell lines, there was a concentration dependent effect on cell growth. […] After completion of the studies on the MCF7 and HT29 cell lines, it was evident that the 0.1 μg/ml concentration had little effect on either apoptosis or cell growth. Therefore subsequent assays were with 5 μg/ml instead of 0.1 μg/ml.
# rhinovirus = experiment: In vitro rhinovirus model; type: cell-based
# lung = type: in vivo; settings: A549-lung, 500 mg/kg
# [5] = tested on: MX1 breast cancer tumors implanted subcutaneously; experiment: Tumor growth reduction in mice models (Table 5), breast; type: in vivo; settings: MXI-breast
# [6] = tested on: B16 murine melanoma cell line; experiment: Apoptosis study (TdT assay) and cell growth; type: cell-based
# Experimental: as §2, §3
# The concentration effects at days 1-4 were much more evident after normalization of the apoptosis for the growth rates.
# colon = experiment: Tumor growth reduction in mice models (Tables 5 and 6), colon; type: in vivo; settings: HT29-colon, 2500 mg/kg
# [7] = DU-145, 4000 mg/kg twice weekly
# [8] = DU-145, 5000 mg/kg twice weekly
# [9] = DU-145, 6000 mg/kg twice weekly
# [10] = HT29 (colon), 2000 mg/kg twice weekly
# [11] = HT29 (colon), 3000 mg/kg twice weekly
# [12] = HT29 (colon), 4000 mg/kg twice weekly
# [13] = HT29 (colon), 5000 mg/kg twice weekly
# [14] = HT29 (colon), 6000 mg/kg twice weekly
# [15] = MCF-7L (breast), 4000 mg/kg twice weekly
# [16] = MCF-7L (breast), 5000 mg/kg twice weekly
# [17] = MX1 xenograft, 4000 mg/kg twice weekly
# [18] = MX1 xenograft, 5000 mg/kg twice weekly
# [19] = MX1 xenograft, 6000 mg/kg twice weekly
# [20] = SK-MES, 4000 mg/kg twice weekly
# [21] = SK-MES, 5000 mg/kg twice weekly
# [22] = SK-MES, 6000 mg/kg twice weekly
smiles,measurement,setting,value
"COC(=O)Nc1nc2ccccc2[nH]1 [carbendazim, 2-methoxycarbonylamino-benzimidazole]",EC-50 Result,"HT29 colon tumor cells; HT29, first column",0.621 ppm
same,EC-50 Result,"HT29 colon tumor cells; HT29, second column",0.662 ppm
same,T/C,B-16 mouse melanoma; 500 mg/kg twice weekly,141
same,weight change (%),B-16 mouse melanoma; 500 mg/kg twice weekly,−0.64%
same,T/C,B-16 mouse melanoma; 1000 mg/kg twice weekly,176
same,weight change (%),B-16 mouse melanoma; 1000 mg/kg twice weekly,−4.75%
same,T/C,B-16 mouse melanoma; 1250 mg/kg twice weekly,124
same,weight change (%),B-16 mouse melanoma; 1250 mg/kg twice weekly,+1.99%
same,T/C,B-16 mouse melanoma; 2000 mg/kg twice weekly,169
same,weight change (%),B-16 mouse melanoma; 2000 mg/kg twice weekly,−11.63%
same,T/C,B-16 mouse melanoma; 2500 mg/kg twice weekly,169
same,weight change (%),B-16 mouse melanoma; 2500 mg/kg twice weekly,+3.16%
same,T/C,B-16 mouse melanoma; 5000 mg/kg twice weekly,198
same,weight change (%),B-16 mouse melanoma; 5000 mg/kg twice weekly,−0.64%
same,Increased Life Span,B-16 mouse melanoma; 1000 mg/kg,131%
same,Increased Life Span,B-16 mouse melanoma; 2000 mg/kg,163%
same,Increased Life Span,B-16 mouse melanoma; 4000 mg/kg,187%
same,EC-50 Result,"MX1 breast cells; MX1, first column",0.829 ppm
same,EC-50 Result,"MX1 breast cells; MX1, second column",0.856 ppm
same,% weight change (wt),"[1]; A549 (lung), 500 mg/kg",+10%
same,toxic deaths/number of test subjects (deaths),"[1]; A549 (lung), 500 mg/kg",0/10
same,tumor growth suppression (tg supp.),"[1]; A549 (lung), 500 mg/kg",57%
same,toxic deaths/number of test subjects (deaths),"[1]; A549 (lung), 2500 mg/kg",10/10
same,% weight change (wt),[1]; [7],−5%
same,toxic deaths/number of test subjects (deaths),[1]; [7],0/10
same,tumor growth suppression (tg supp.),[1]; [7],52%
same,% weight change (wt),[1]; [8],−8%
same,toxic deaths/number of test subjects (deaths),[1]; [8],1/10
same,tumor growth suppression (tg supp.),[1]; [8],48%
same,% weight change (wt),[1]; [9],−6%
same,toxic deaths/number of test subjects (deaths),[1]; [9],1/10
same,tumor growth suppression (tg supp.),[1]; [9],33%
same,% weight change (wt),[1]; [10],+3%
same,toxic deaths/number of test subjects (deaths),[1]; [10],0/10
same,tumor growth suppression (tg supp.),[1]; [10],36%
same,% weight change (wt),[1]; [11],−6%
same,toxic deaths/number of test subjects (deaths),[1]; [11],2/10
same,tumor growth suppression (tg supp.),[1]; [11],65%
same,% weight change (wt),[1]; [12],−12%
same,toxic deaths/number of test subjects (deaths),[1]; [12],3/10
same,tumor growth suppression (tg supp.),[1]; [12],78%
same,% weight change (wt),[1]; [13],−8%
same,toxic deaths/number of test subjects (deaths),[1]; [13],2/10
same,tumor growth suppression (tg supp.),[1]; [13],79%
same,% weight change (wt),[1]; [14],−25%
same,toxic deaths/number of test subjects (deaths),[1]; [14],9/10
same,tumor growth suppression (tg supp.),[1]; [14],97%
same,% weight change (wt),[1]; [15],−7%
same,toxic deaths/number of test subjects (deaths),[1]; [15],5/10
same,tumor growth suppression (tg supp.),[1]; [15],94%
same,% weight change (wt),[1]; [16],−8%
same,toxic deaths/number of test subjects (deaths),[1]; [16],7/10
same,tumor growth suppression (tg supp.),[1]; [16],100%
same,toxic deaths/number of test subjects (deaths),"[1]; MCF-7L (breast), 6000 mg/kg twice weekly",10/10
same,% weight change (wt),[1]; [17],−1%
same,toxic deaths/number of test subjects (deaths),[1]; [17],0/10
same,tumor growth suppression (tg supp.),[1]; [17],48%
same,% weight change (wt),[1]; [18],−4%
same,toxic deaths/number of test subjects (deaths),[1]; [18],1/10
same,tumor growth suppression (tg supp.),[1]; [18],63%
same,% weight change (wt),[1]; [19],−4%
same,toxic deaths/number of test subjects (deaths),[1]; [19],1/9
same,tumor growth suppression (tg supp.),[1]; [19],70%
same,% weight change (wt),[1]; [20],+3%
same,toxic deaths/number of test subjects (deaths),[1]; [20],2/10
same,tumor growth suppression (tg supp.),[1]; [20],45%
same,% weight change (wt),[1]; [21],+2%
same,toxic deaths/number of test subjects (deaths),[1]; [21],1/10
same,tumor growth suppression (tg supp.),[1]; [21],44%
same,% weight change (wt),[1]; [22],−2%
same,toxic deaths/number of test subjects (deaths),[1]; [22],3/10
same,tumor growth suppression (tg supp.),[1]; [22],69%
same,"cell counts, % of the control",[2]; 5 μg/ml,less than 10%
same,"cell counts, % of the control",[2]; 10 μg/ml,less than 10%
same,"cell counts, % of the control",[3]; 5 μg/ml,less than 10%
same,"cell counts, % of the control",[3]; 10 μg/ml,less than 10%
same,"cell counts, % of the control",MCF7 (normal p53); 5 μg/ml,45%
same,"cell counts, % of the control",MCF7 (normal p53); 10 μg/ml,36%
same,"cell counts, % of the control","DLD-1 (abnormal p53); DLD1, 1 μg/ml",34%
same,"cell counts, % of the control","DLD-1 (abnormal p53); DLD-1, 5 μg/ml",less than 10%
same,"cell counts, % of the control","DLD-1 (abnormal p53); DLD-1, 10 μg/ml",less than 10%
same,"cell counts, % of the control","HCT116 (normal p53); HCT 116, 1 μg/ml",78%
same,"cell counts, % of the control","HCT116 (normal p53); HCT116, 5 μg/ml",less than 10%
same,"cell counts, % of the control","HCT116 (normal p53); HCT116, 10 μg/ml",less than 10%
same,apoptosis,"[4]; 10 μg/ml, days 3 and 4",> 25%
same,cell growth,[4]; below 10 μg/ml,not largely slowed down
same,"therapeutic index (TI), ratio of toxic dose to efficacious dose",rhinovirus,1-3
same,Tumor Growth Decrease (%),lung,57%
same,Tumor Growth Decrease (%),[5]; 500 mg/kg,42%
same,Tumor Growth Decrease (%),[5]; 2500 mg/kg,37%
same,growth rates,[6]; all concentrations,affected the growth rates
same,apoptosis,[6]; days 14 by TdT microscopy and days 2-4 by flow cytometry,Some concentration dependent effects
same,Tumor Growth Decrease (%),colon,54%
